Assay results published in US10808007B2, “Desacetoxytubulysin H and analogs thereof” (WILLIAM MARSH RICE UNIVERSITY, priority 2015, dated 2020).
Where two headings read alike, the source gives them in different places.

How the values were obtained:
Assay type in all cases: cell-based
[1] = test system: MES SA DX (multidrug resistant uterine sarcoma cells); test: Cytotoxic assay (CellTiter-Glo, 72 h), MES SA DX; conditions: Homo sapiens
[2] = test system: prostate cancer cell lines; test: NCI-60 cytotoxicity, prostate cancer; conditions: Homo sapiens
Experimental: (§1) A number of the synthesized compounds (i.e. Tb1-Tb23) were evaluated for their activity against a variety of cancer cell lines, namely the NCI-60 human cancer cell line panel representing leukemia, melanoma, lung, colon, brain, ovary, breast, prostate and kidney types of cancer through the In Vitro Cell Line Screening Project (IVCLSP) of the National Cancer Institute (NCI), and a summary of the results is shown in Table 1. […] As there was interest in the activity in certain other cell lines, these and the remaining compounds (Tb1-Tb41, PTb-D42 and PTb-D43) were subjected to further testing against MES SA (uterine sarcoma cells), MES SA DX (multidrug resistant uterine sarcoma cells), and HEK 293T (human embryonic kidney cells). […] Tubulysins are known to be substrates for Pgp pumps (Xiangming, et al., 2013; Kaur, et al., 2006; Szakacs, et al., 2006) as supported by the observed low activities of all tubulysins tested except Tb28, Tb32 and Tb33.

[3] = test system: ovarian cancer cell lines; test: NCI-60 cytotoxicity, ovarian cancer; conditions: Homo sapiens
Experimental: as §1

[4] = test system: HEK 293T (human embryonic kidney cells); test: Cytotoxic assay (CellTiter-Glo, 72 h), HEK 293T; conditions: Homo sapiens, HEK-293T, read-out: IC50 HEK 293T
[5] = test system: leukemia cancer cell lines; test: NCI-60 cytotoxicity, leukemia; conditions: Homo sapiens
Experimental: as §1

melanoma cell lines = test: NCI-60 cytotoxicity, melanoma; conditions: Homo sapiens
Experimental: as §1

CNS cancer cell lines = test: NCI-60 cytotoxicity, CNS cancer; conditions: Homo sapiens
Experimental: as §1

colon cancer cell lines = test: NCI-60 cytotoxicity, colon cancer; conditions: Homo sapiens
Experimental: as §1

[6] = test system: MES SA (uterine sarcoma cells); test: Cytotoxic assay (CellTiter-Glo, 72 h), MES SA; conditions: Homo sapiens, MES-SA, read-out: IC50 MES SA
[7] = test system: non-small cell lung cancer cell lines; test: NCI-60 cytotoxicity, non-small cell lung cancer; conditions: Homo sapiens
Experimental: as §1

renal cancer cell lines = test: NCI-60 cytotoxicity, renal cancer; conditions: Homo sapiens
Experimental: as §1

breast cancer cell lines = test: NCI-60 cytotoxicity, breast cancer; conditions: Homo sapiens
Experimental: as §1

SMILES	IC50 [1] [nM]	GI50 ([2]; NCI-60, selected value) [nM]	IC50 ([4]; 72 h) [nM]	GI50 (melanoma cell lines; NCI-60, selected value) [nM]	GI50 (CNS cancer cell lines; NCI-60, selected value) [nM]	GI50 (colon cancer cell lines; NCI-60, selected value) [nM]	IC50 ([6]; 72 h) [nM]	GI50 ([3]; NCI-60, selected value) [nM]	GI50 ([5]; NCI-60, selected value) [nM]	GI50 ([7]; NCI-60, selected value) [nM]	GI50 (renal cancer cell lines; NCI-60, selected value) [nM]	GI50 (breast cancer cell lines; NCI-60, selected value) [nM]	also measured
COC(=O)[C@@H](C)C[C@H](Cc1ccccc1)NC(=O)c1csc([C@@H](C[C@H](C(C)C)N(C)C(=O)[C@@H](NC(=O)[C@H]2CCCCN2C)C2CC2)OC(C)=O)n1 [Tb20, Methyl (2S,4R)-4-(2-((1R,3R)-1-acetoxy-3-((S)-2-cyclopropyl-N-methyl-2-((R)-1-methylpiperidine-2-carboxamido)acetamido)-4-methylpentyl)thiazole-4-carboxamido)-2-methyl-5-phenylpentanoate]	< 200	0.211	0.047	0.035	0.345	0.263	0.046	–	–	–	–	–	GI50 ([2]; NCI-60): 0.211 nM; GI50 ([3]; NCI-60): 0.049 nM; IC50 [4]: 0.047 nM; GI50 ([5]; NCI-60): 0.098 nM; GI50 (melanoma cell lines; NCI-60): 0.035 nM; GI50 (CNS cancer cell lines; NCI-60): 0.345 nM; GI50 (colon cancer cell lines; NCI-60): 0.263 nM; IC50 [6]: 0.046 nM; GI50 ([7]; NCI-60): 0.247 nM; GI50 (renal cancer cell lines; NCI-60): 0.27 nM; GI50 (breast cancer cell lines; NCI-60): 0.044 nM
CC[C@H](C)[C@H](NC(=O)Nc1ccccc1)C(=O)N(C)[C@H](C[C@@H](OC(C)=O)c1nc(C(=O)N[C@@H](Cc2ccccc2)C[C@H](C)C(=O)OC)cs1)C(C)C [Tb5, (2S,4R)-Methyl 4-(2-((1R,3R)-1-acetoxy-3-((2S,3S)—N,3-dimethyl-2-(3-phenylureido)pentanamido)-4-methylpentyl)thiazole-4-carboxamido)-2-methyl-5-phenylpentanoate]	> 50	> 1000	> 50	416	> 1000	> 1000	> 50	> 1000	> 1000	> 1000	> 1000	514	–
CCC(C)[C@H](NC(=O)[C@H]1CCCCN1C)C(=O)N(C)[C@H](C[C@@H](OC(C)=O)c1nc(C(=O)NC23C4C5C2C2C3C4C52C(=O)OC)cs1)C(C)C (stereo in doubt) [Tb11, Methyl 4-(2-((1R,3R)-1-acetoxy-3-((2S,3S)—N,3-dimethyl-2-((R)-1-methylpiperidine-2-carboxamido)-pentanamido)-4-methylpentyl)thiazole-4-carboxamido)cubane-1-carboxylate]	> 50	1.13	0.26	0.349	1.15	1.14	0.84	–	–	–	–	–	GI50 ([2]; NCI-60): 1.13 nM; GI50 ([3]; NCI-60): 0.489 nM; GI50 ([5]; NCI-60): 0.159 nM; GI50 (melanoma cell lines; NCI-60): 0.349 nM; GI50 (CNS cancer cell lines; NCI-60): 1.15 nM; GI50 (colon cancer cell lines; NCI-60): 1.14 nM; GI50 ([7]; NCI-60): 0.331 nM; GI50 (renal cancer cell lines; NCI-60): 0.768 nM; GI50 (breast cancer cell lines; NCI-60): 0.428 nM
CC[C@H](C)[C@H](NC(=O)C12C3C4C1C1C2C3C41NC)C(=O)N(C)[C@H](C[C@@H](OC(C)=O)c1nc(C(=O)N[C@@H](Cc2ccccc2)C[C@H](C)C(=O)OC)cs1)C(C)C (stereo partly drawn) [Tb10, Methyl(2S,4R)-4-(2-((1R,3R)-1-acetoxy-3-((2S,3S)—N,3-dimethyl-2-(4-(methylamino)cubane-1-carboxamido)pentanamido)-4-methylpentyl)thiazole-4-carboxamido)-2-methyl-5-phenylpentanoate]	> 50	500	> 50	49.5	271	355	> 50	92.6	61.3	60.2	413	66.4	–
CC[C@H](C)[C@H](NC(=O)C12CC(NC(C)=O)(C1)C2)C(=O)N(C)[C@H](C[C@@H](OC(C)=O)c1nc(C(=O)N[C@@H](Cc2ccccc2)C[C@H](C)C(=O)OC)cs1)C(C)C [Tb7, Methyl (2S,4R)-4-(2-((1R,3R)-3-((2S,3S)-2-(3-acetamidobicyclo[1.1.1]pentane-1-carboxamido)-N,3-dimethylpentanamido)-1-acetoxy-4-methylpentyl)thiazole-4-carboxamido)-2-methyl-5-phenyl-pentanoate]	> 50	105	> 50	31.4	219	61.3	> 50	48.5	17.6	57.8	134	42.8	–
COC(=O)[C@@H](C)C[C@H](Cc1ccccc1)NC(=O)c1csc([C@@H](C[C@H](C(C)C)N(C)C(=O)[C@@H](NC(=O)CN(C)C)C2CC2)OC(C)=O)n1 [Tb21, Methyl (2S,4R)-4-(2-((6S,9R,11R)-6-cyclopropyl-9-isopropyl-2,8-dimethyl-4,7,13-trioxo-12-oxa-2,5,8-triazatetradecan-11-yl)thiazole-4-carboxamido)-2-methyl-5-phenylpentanoate]	> 50	34.6	> 10	2.23	24.1	23.9	16.8	5.79	1.65	6.62	23.2	4.04	–
CC[C@H](C)[C@H](NC(=O)C12CC(NC)(C1)C2)C(=O)N(C)[C@H](C[C@@H](OC(C)=O)c1nc(C(=O)N[C@@H](Cc2ccccc2)C[C@H](C)C(=O)OC)cs1)C(C)C [Tb8, Methyl(2S,4R)-4-(2-((1R,3R)-1-acetoxy-3-((2S,3S)—N,3-dimethyl-2-(3-(methylamino)-bicyclo[1.1.1]pentane-1-carboxamido)pentanamido)-4-methylpentyl)thiazole-4-carboxamido)-2-methyl, 5-phenyl-pentanoate-phenylpentanoate]	> 50	125	> 50	33.3	105	121	> 50	75	9.62	96.7	164	52.1	–
CCC(C)[C@H](NC(=O)CN(C)C)C(=O)N(C)[C@H](C[C@@H](OC(C)=O)c1nc(C(=O)NC23C4C5C2C2C3C4C52C(=O)OC)cs1)C(C)C (stereo in doubt) [Tb13, Methyl 4-(2-((6S,9R,11R)-6-((S)-sec-butyl)-9-isopropyl-2,8-dimethyl-4,7,13-trioxo-12-oxa-2,5,8-triaza-tetradecan-11-yl)thiazole-4-carboxamido)cubane-1-carboxylate]	> 50	167	> 50	40.2	117	122	> 50	111	13.8	142	167	136	–
CC[C@H](C)[C@H](NC(=O)NC(C)(C)C)C(=O)N(C)[C@H](C[C@@H](OC(C)=O)c1nc(C(=O)N[C@@H](Cc2ccccc2)C[C@H](C)C(=O)OC)cs1)C(C)C [Tb6, Methyl (2S,4R)-4-(2-((6S,9R,1R)-6-((S)-sec-butyl)-9-isopropyl-2,2,8-trimethyl-4,7,13-trioxo-12-oxa-3,5,8-triazatetradecan-11-yl)thiazole-4-carboxamido)-2-methyl-5-phenylpentanoate]	> 50	689	> 50	83.9	439	339	> 50	127	286	164	154	71.4	–
